Assays:
Balb/3T3 cells = assay: PDGF-induced proliferation of Balb/3T3 cells; assay type: cell-based, murine
Method: Balb/3T3 cells respond vigorously to PDGF stimulation, and are useful in vitro models for further study of PDGF-induced proliferation. Disregulated PDGF-proliferative response has been linked to a variety of diseases, including, e.g., restenosis, atherosclerosis, fibrosis, and tumor cell angiogenesis. Cells were plated in low serum-containing medium for 24 hours prior to stimulation with various concentrations of inventive compound no. 45. PDGF-BB was added at constant 10 µM concentrations. Tritiated thymidine was added and cells harvested for scintillation counting 24 hours later. Figure 15 illustrates a dose response curve from this assay, including an IC50 value of approximately 0.08 µM, exemplifying inhibitory activity of the tested compound.
In another investigation similar to the Balb/3T3 proliferation assay of Example 32, IC50 and ID50 values for inventive compounds nos. 70, 45, 59 and 58 were determined. LD50 values were determined using a cytotoxicity assay, as in Example 32. In these assays, Balb/3T3 cells, stimulated with PDGF and treated with one of the above inventive compounds in a manner identical to the tritiated thymidine procedure above, were incubated instead with a viable dye BCECF, a fluorescent dye. Fluorescence was measured using a fluorescent plate reader. […] Figure 17 illustrates assay results by comparing […] value against LD50 values for the inventive compounds tested. Most compounds tested were non-cytotoxic yet were significant inhibitors of proliferation.
Inventive compounds nos. 77,7 and 78 were added at various concentrations one hour prior to PDGF stimulation. PDGF-BB was added at a constant 10 µM concentrations along with tritiated thymidine. The cells were allowed to incubate for one day, following addition of PDGF and tritiated thymidine. 24 Hours later, the cells were harvested and counted by liquid scintillation counting. Results for compounds nos.77, 7 and 78 are shown in figures 26A, 26B and 26C, respectively. Background counts were approximately 1% of control levels.
Results obtained for compound no. 50 in the PDGF-induced proliferation of Balb/3T3 cells (Example 32), reported in figure 28, illustrate the inhibitive properties of this compound on proliferation induced by PDGF, representing significant inhibition at concentrations as low as 2 µM. […] 50, are capable of reducing tumor cell growth by blocking oncogene-induced events.
Figure 66 reports that inventive compound no. 45 inhibited PDGF-induced murine BALB/3T3 proliferation. Procedurally, cells were rested overnight in 0.2% serum and stimulated with 25 ng/ml PDGF. Compound no. 45 was added 1 hour prior to stimulation. Cells were pulsed with ^3H-TdR 24 hours later and harvested for scintillation counting 4 hours later.
Figures 66A and 66B are a dose response and cytoxicity curves, respectively, for inhibition of proliferation in Balb/3T3 cells by inventive compound no. 58. In the assay protocol, cells were starved overnight in 0.5% serum containing medium, followed by stimulation with 20 ng/ml PDGF for 24 hours. The cells were labeled with ^3H-TdR for 4 hours and harvested and counted by scintillation. Figure 66B illustrates that inventive compound no.
Figure 68 illustrates an effect of the delayed addition of inventive compound no. 58 to Balb/3T3 proliferation in response to PDGF-BB. Cells were stimulated with PDGF (20 ng/ml) and inventive compound no. 58 added either simultaneous with PDGF (0) or at various times after addition of PDGF, up to 6 hours later. At 24 hours, the cells were pulsed with ^3H-TdR and counted by scintillation four hours later. […] 58 was added as late as 20 hours after PDGF.
Figure 69 illustrates that inventive compound no. […] In the assay protocol, cells were serum starved for 24 hours before adding either 20 ng/ml PDGF or 10% serum. The cells were pulsed with ^3HTdR 24 hours later. Inventive compound no.

[1] = tested on: THP-1 cell adhesion to IL-1-activated HUVEC; assay: THP-1 cell adhesion to activated HUVEC; assay type: cell-based, human
Method: This example illustrates inhibitive activity of compounds nos. 50 and 57 on THP-1 cell adhesion to IL-1-activated HUVEC. In an investigative assay, HUVEC were stimulated with IL-1 (10 ng/ml), both in the absence and presence of varying concentrations of drugs for 8 hours in a 96-well microtiter plate. In the wellplate, human monocytic leukemia cell line THP-1 cells were added at 50,000 cells per well. The THP-1 cells were pre-incubated with BCECF, a fluorescence dye that can be used to measure cell number using a fluorescence plate reader. After 10 minutes at 37 °C, the microtiter plate was inverted and spun at 900 rpm. The remaining adhering THP-1 cells were then analyzed.
Inventive compound no. […] HUVEC were stimulated with 20 ng/ml IL-1β or 15 ng/ml TNFα for 6 hours. Fluorescence labeled (BCECF-AM) THP-1 cells were allowed to adhere to the HUVEC for 20 minutes, washed once and the amount of fluorescence remaining analyzed on a fluorescence plate reader. The results, reported in figures 62A and 62B (TNFα or IL-1β, respectively), show inhibition of THP-1 adhesion to HUVEC.
Figures 72A and 72B illustrate that inventive compound no. 58 inhibited THP-1 cell adhesion to either TNF or IL-1-stimulated HUVEC, respectively. Procedurally, HUVEC were stimulated with TNF or IL-1 for 8 hours and THP-1 cells added for 20 minutes. The HUVEC were then washed and analyzed for adherence. Inventive compound no. 58 inhibited adhesion of THP-1 cells to HUVEC with an IC50 of approximately 1 µM for both TNF and IL-1.

ICAM-1 = assay: ICAM expression on TNF-stimulated HUVEC (flow cytometry); assay type: cell-based, human
Method: (§1) Assay results reported in figures 63A and 63B, illustrate that inventive compound no. […] HUVEC were stimulated with TNFα (20 ng/ml) for 5 hours and stained using fluorescent antibodies to ICAM-1 or VCAM-1. Cell surface expression was analyzed by flow cytometry. All values were normalized to the peak mean fluorescence of the positive control (=100%). Average levels of induction using TNFα- stimulation were 20-fold higher for ICAM-1 and over 50-fold higher for VCAM-1 from that of nonstimulated controls, as shown in figures 63 and 63B.
(§2) Figures 73A and 73B illustrate inhibition by inventive compound no. 58 of VCAM or ICAM expression, respectively, in HUVEC activated by TNF. Cells were stimulated for 8 hours in the presence or absence of inventive compounds and stained with fluorescent antibodies to VCAM or ICAM and analyzed by flow cytometry.

[2] = tested on: vascular cell adhesion molecule (VCAM); assay: VCAM expression on TNF-stimulated HUVEC (flow cytometry); assay type: cell-based, human
From the text: This example illustrates an investigation of inhibition of vascular cell adhesion molecule (VCAM) expression on HUVEC by compound no. 58. VCAM expression by endothelial cells is an early event in the pathogenesis of atherogenesis and multiple sclerosis, among other various autoimmune diseases. Figure 23 is a series of frequency histograms obtained in this exemplary assay. […] In the absence of TNF, VCAM expression on HUVEC was at a very low level. […] The average increase in cell fluorescence was approximately 10-fold. The bottom panel is a frequency histogram of TNF-stimulated cells in the presence of compound no 58. […] 58.
as §1, §2

With `COc1cc(CNCC(O)CCCCCCCCCn2c(=O)c3c(ncn3C)n(C)c2=O)cc(OC)c1OC` (centres unmarked) [compound no. 58, 1-[11-(3,4,5-Trimethoxybenzylamino)-10-hydroxyundecyl]-3,7-dimethylxanthine] the “PDGF-induced versus serum-induced proliferation” value (Balb/3T3 cells; 20 ng/ml PDGF or 10% serum) was “inhibited PDGF- induced proliferation in Balb/3T3 cells to a greater extent than serum-induced proliferation”, the “effect on serum-induced proliferation” value (Balb/3T3 cells; 10% serum) was “did not have a significant effect on serum-induced Balb/3T3 proliferation” and the IC50 (Balb/3T3 cells; Mus musculus, BALB/3T3, 20 ng/ml PDGF, 24 hours) was 200 to 500 nM. For the same molecule, the “inhibition with delayed addition” value (Balb/3T3 cells; added as late as 20 hours after PDGF) was “nearly complete inhibition in proliferation”, the IC50 ([1]; Homo sapiens, TNF-stimulated HUVEC, 8 hours) was roughly 1000 nM and the ICAM expression (ICAM-1; TNF, 8 hours) was “inhibition”. The “factor of reduction of mean fluorescence (VCAM expression)” value ([2]; TNF 6 hours, versus TNF-stimulated cells without compound) was 8 and the VCAM expression ([2]; TNF, 8 hours) was “inhibition”.

`CCCCCCCCNCC(O)CCCCCCCCCn1c(=O)c2c(ncn2C)n(C)c1=O` (centres unmarked) [compound no. 45] was tested, and the IC50 (Balb/3T3 cells; Mus musculus, BALB/3T3, PDGF-BB, low serum 24 hours) was roughly 80 nM, the “inhibition of THP-1 adhesion” value ([1]; 20 ng/ml IL-1β or 15 ng/ml TNFα, 6 hours) was “inhibited adhesion of monocytic leukemia cells (THP-1) to IL-1β or TNFα-activated HUVEC” and the “ICAM-1 cell surface expression” value (ICAM-1; TNFα (20 ng/ml), 5 hours) was “inhibited adhesion receptor expression on HUVEC”. For the same molecule, the “VCAM-1 cell surface expression” value ([2]; TNFα (20 ng/ml), 5 hours) was “inhibited adhesion receptor expression on HUVEC”.

In the case of `CCCCCCCCCCCCNCC(O)CCCCCCCCCn1c(=O)c2c(ncn2C)n(C)c1=O` (centres unmarked) [compound no. 50, 1-(11-Dodecylamino-10-hydroxyundecyl)-3,7-dmethylxanthine], the minimal effective concentration (Balb/3T3 cells; Mus musculus, BALB/3T3, fig. 28, read-out: concentrations giving significant inhibition) is reported as no less than 2 µM and the “inhibition of THP-1 adhesion” value ([1]; IL-1 (10 ng/ml), 8 hours) is reported as “significantly inhibited THP-1 adhesion, even at low concentratations”.
